Laboratory results taken from patent US11834424B2, “Compounds useful as chaperone-mediated autophagy modulators” (ALBERT EINSTEIN COLLEGE OF MEDICINE, priority 2018, dated 2023).
Values joined by “and” are separate entries in the source; they are usually repeats but may differ in a detail not shown here. Equal values may be shown once. Read-outs that look alike come from different tables or passages of the source.

Assays:
[1] = test system: chaperone-mediated autophagy (CMA) in NIH 3T3 fibroblasts; experiment: Photoswitchable KFERQ-Dendra CMA reporter assay in NIH 3T3 fibroblasts; format: cell-based
Method: The photoactivatable CMA reporter assay was constructed by inserting a sequence of 21 amino acid of Ribonuclease A bearing the CMA-targeting motif in the N-terminus multicloning site of the photoactivatable protein mCherryl or the photoswitchable protein Dendra 2.
NIH 3T3 fibroblasts were stably transduced with a photoconvertible CMA reporter, KFERQ-Dendra. were photoswitched by exposure to a […] (constant current) LED (Norlux, 405 nm) for 10 minutes and at the desired times fixed in 3% formaldehyde. Test cells were exposed to the indicated concentrations of the compounds for 12 hours (FIG. 3A) or 24 hours (FIG. 3B). Cells were imaged using high content microscopy (Operetta, Perkin Elmer) or by capturing images with an Axiovert 200 fluorescence microscope (Zeiss) with apotome and equipped with a 63/1.4 NA oil objective lens and red (ex. 570/30 nm, em. 615/30 nm), cyan (ex. 365/50 nm and em. 530/45 nm) and green (ex. 475/40 nm and em. 535/45 nm) filter sets (Chroma). Images were acquired with a high-resolution CCD camera after optical sectioning through the apotome. CMA activity measured as the average number of fluorescent puncta (CMA active lysosomes) per cell. Values are expressed relative to values in untreated cells that were assigned an arbitrary value of 1 and are mean of >2,500 cells counted per condition. The S.D. in all instances was <0.01% mean value. Table 2 provides a comparison of compounds CA39.1 and its comparative example CA39 and CA77.01 and its comparative example CA77.

[2] = Pharmacokinetics (plasma and brain levels) in ICR (CD-1) mice; format: in vivo; settings: i.v. 1 mg/kg, 1 mg/kg
Method: ICR (CD-1) male mice were fasted at least three horns and water was available ad libitum before the study. Animals were housed in a controlled environment, target conditions: temperature 18 to 29° C., relative humidity 30 to 70%. Temperature and relative humidity was monitored daily. An electronic time controlled lighting system was used to provide a 12 h light/12 h dark cycle. 3 mice for each indicated time point. ICR (CD-1) mice were administered CA77 at 1 mg/kg i.v. and 30 mg/kg p.o. or CA77.1 at 1 mg/kg i.v. (FIG. 2A) and 10 mg/kg p.o. (FIG. 2B). Three (3) mice were included in each dosage and time group. Mice were sacrificed and plasma and brains were obtained at 0.083, 0.25, 0.50, 1.0, 2.0, 4.0, 8.0, and 24.0 hours after administration and drug concentration determined using LC-MS/MS. Brains were removed, homogenized with a tissue homogenizer in cold 5% w/v BSA in phosphate buffer saline (PBS). A 100 microliter aliquots of brain samples were dispensed in to glass culture tubes and mixed with ethyl acetate (800 μl), vortexed, and centrifuged. The organic layer was transferred to a fresh culture tube, dried under nitrogen, and reconstituted in mobile phase for quantitation. Pharmacokinetic parameters were determined by standard methods using Phoenix WinNonlin 6.3 software.
Tables 3A and 3B provide the concentrations of CA77 in ICR (CD-1) mouse plasma (3A) and mouse brain (3B) following i.v. administration of 1 mg/kg CA77. Table 3C provides the brain/plasma ratio of CA77 following i.v. administration of 1 mg/kg CA77. Shaded cells indicate data not included in statistics due to aberrant value. BLQ=Below Limit of Quantitation.
Tables 5A and 5B provide the concentrations of CA77.1 in ICR (CD-1) mouse plasma (5A) and mouse brain (5B) following i.v. administration of 1 mg/kg CA77.1. Table 5C provides the brain/plasma ratio of CA77.1 following i.v. administration of 1 mg/kg CA77.1. The plasma and brain pharmacokinetic parameters for CA77.1 are provided in Table 6. *—cells contain data not present in the statistics.

Conc. in brain, individual animal ([2]; mouse brain, 0.083 h): 2943 ng/g and *693 ng/g
Conc. in brain, individual animal ([2]; mouse brain, 0.25 h): 3391 ng/g and 5173 ng/g and 2397 ng/g
Conc. in brain, individual animal ([2]; mouse brain, 0.50 h): 2795 ng/g and 2950 ng/g
Conc. in brain, individual animal ([2]; mouse brain, 1.00 h): 2651 ng/g and 2154 ng/g
Conc. in brain, individual animal ([2]; mouse brain, 2.00 h): 411 ng/g and 792 ng/g
Conc. in brain, individual animal ([2]; mouse brain, 4.00 h): 112 ng/g and 124 ng/g
Conc. in brain, individual animal ([2]; mouse brain, 8.00 h): 7.74 ng/g and 27.5 ng/g and 41.4 ng/g
Conc. in brain, individual animal ([2]; mouse brain, 24.0 h): 2.68 ng/g and 4.25 ng/g and 2.07 ng/g
Conc. in plasma, individual animal ([2]; mouse plasma, 0.083 h): 41.4 ng/mL and *14 ng/mL
Conc. in plasma, individual animal ([2]; mouse plasma, 0.25 h): 27.2 ng/mL and 43.9 ng/mL and 19.5 ng/mL
Conc. in plasma, individual animal ([2]; mouse plasma, 0.50 h): 14.6 ng/mL and 21.9 ng/mL
Conc. in plasma, individual animal ([2]; mouse plasma, 1.00 h): 21.5 ng/mL and 15.3 ng/mL
Conc. in plasma, individual animal ([2]; mouse plasma, 2.00 h): 7.54 ng/mL and 1.71 ng/mL and 3.84 ng/mL
Conc. in plasma, individual animal ([2]; mouse plasma, 4.00 h): BLQ and 0.533 ng/mL
Brain/Plasma ratio, individual animal ([2]; mouse, 0.083 h): 71.1 and *48.9
Brain/Plasma ratio, individual animal ([2]; mouse, 0.25 h): 118 and 123
Brain/Plasma ratio, individual animal ([2]; mouse, 0.50 h): 192 and 135
Brain/Plasma ratio, individual animal ([2]; mouse, 1.00 h): 123 and 141
Brain/Plasma ratio, individual animal ([2]; mouse, 2.00 h): 102 and 240 and 206
Brain/Plasma ratio, individual animal ([2]; mouse, 4.00 h): 232
concentration at 0.083 h ([2]; male, ICR (CD-1), mouse, brain, iv, mouse brain, 0.083 h, read-out: Conc. in brain, Mean): 3360 ng/g
concentration at 0.083 h ([2]; male, ICR (CD-1), mouse, brain, iv, mouse brain, 0.083 h, read-out: Conc. in brain, individual animal): 3770 ng/g
concentration at 0.25 h ([2]; male, ICR (CD-1), mouse, brain, iv, mouse brain, 0.25 h, read-out: Conc. in brain, Mean): 3650 ng/g
concentration at 0.5 h ([2]; male, ICR (CD-1), mouse, brain, iv, mouse brain, 0.50 h, read-out: Conc. in brain, Mean): 2650 ng/g
concentration at 0.5 h ([2]; male, ICR (CD-1), mouse, brain, iv, mouse brain, 0.50 h, read-out: Conc. in brain, individual animal): 2200 ng/g
concentration at 1 h ([2]; male, ICR (CD-1), mouse, brain, iv, mouse brain, 1.00 h, read-out: Conc. in brain, Mean): 2460 ng/g
concentration at 1 h ([2]; male, ICR (CD-1), mouse, brain, iv, mouse brain, 1.00 h, read-out: Conc. in brain, individual animal): 2760 ng/g
concentration at 2 h ([2]; male, ICR (CD-1), mouse, brain, iv, mouse brain, 2.00 h, read-out: Conc. in brain, Mean): 659 ng/g
concentration at 2 h ([2]; male, ICR (CD-1), mouse, brain, iv, mouse brain, 2.00 h, read-out: Conc. in brain, individual animal): 773 ng/g
concentration at 4 h ([2]; male, ICR (CD-1), mouse, brain, iv, mouse brain, 4.00 h, read-out: Conc. in brain, Mean): 104 ng/g
concentration at 4 h ([2]; male, ICR (CD-1), mouse, brain, iv, mouse brain, 4.00 h, read-out: Conc. in brain, individual animal): 76 ng/g
concentration at 8 h ([2]; male, ICR (CD-1), mouse, brain, iv, mouse brain, 8.00 h, read-out: Conc. in brain, Mean): 25.6 ng/g
concentration at 24 h ([2]; male, ICR (CD-1), mouse, brain, iv, mouse brain, 24.0 h, read-out: Conc. in brain, Mean): 3 ng/g
Kp at 0.083 h ([2]; male, ICR (CD-1), mouse, brain/plasma, iv, mouse, 0.083 h, read-out: Brain/Plasma ratio, Mean): 71.2
Kp at 0.083 h ([2]; male, ICR (CD-1), mouse, brain/plasma, iv, mouse, 0.083 h, read-out: Brain/Plasma ratio, individual animal): 71.3
Kp at 0.25 h ([2]; male, ICR (CD-1), mouse, brain/plasma, iv, mouse, 0.25 h, read-out: Brain/Plasma ratio, Mean): 122
Kp at 0.25 h ([2]; male, ICR (CD-1), mouse, brain/plasma, iv, mouse, 0.25 h, read-out: Brain/Plasma ratio, individual animal): 125
Kp at 0.5 h ([2]; male, ICR (CD-1), mouse, brain/plasma, iv, mouse, 0.50 h, read-out: Brain/Plasma ratio, Mean): 151
Kp at 0.5 h ([2]; male, ICR (CD-1), mouse, brain/plasma, iv, mouse, 0.50 h, read-out: Brain/Plasma ratio, individual animal): 128
Kp at 1 h ([2]; male, ICR (CD-1), mouse, brain/plasma, iv, mouse, 1.00 h, read-out: Brain/Plasma ratio, Mean): 159
Kp at 1 h ([2]; male, ICR (CD-1), mouse, brain/plasma, iv, mouse, 1.00 h, read-out: Brain/Plasma ratio, individual animal): 178
Kp at 2 h ([2]; male, ICR (CD-1), mouse, brain/plasma, iv, mouse, 2.00 h, read-out: Brain/Plasma ratio, Mean): 183
Kp at 4 h ([2]; male, ICR (CD-1), mouse, brain/plasma, iv, mouse, 4.00 h, read-out: Brain/Plasma ratio, Mean): 210
Kp at 4 h ([2]; male, ICR (CD-1), mouse, brain/plasma, iv, mouse, 4.00 h, read-out: Brain/Plasma ratio, individual animal): 188
concentration at 0.083 h ([2]; male, ICR (CD-1), mouse, plasma, iv, mouse plasma, 0.083 h, read-out: Conc. in plasma, Mean): 47.1 ng/mL
concentration at 0.083 h ([2]; male, ICR (CD-1), mouse, plasma, iv, mouse plasma, 0.083 h, read-out: Conc. in plasma, individual animal): 52.9 ng/mL
concentration at 0.25 h ([2]; male, ICR (CD-1), mouse, plasma, iv, mouse plasma, 0.25 h, read-out: Conc. in plasma, Mean): 30.2 ng/mL
concentration at 0.5 h ([2]; male, ICR (CD-1), mouse, plasma, iv, mouse plasma, 0.50 h, read-out: Conc. in plasma, Mean): 17.9 ng/mL
concentration at 0.5 h ([2]; male, ICR (CD-1), mouse, plasma, iv, mouse plasma, 0.50 h, read-out: Conc. in plasma, individual animal): 17.2 ng/mL
concentration at 1 h ([2]; male, ICR (CD-1), mouse, plasma, iv, mouse plasma, 1.00 h, read-out: Conc. in plasma, Mean): 15.4 ng/mL
concentration at 1 h ([2]; male, ICR (CD-1), mouse, plasma, iv, mouse plasma, 1.00 h, read-out: Conc. in plasma, individual animal): 15.5 ng/mL
concentration at 2 h ([2]; male, ICR (CD-1), mouse, plasma, iv, mouse plasma, 2.00 h, read-out: Conc. in plasma, Mean): 4.37 ng/mL
concentration at 4 h ([2]; male, ICR (CD-1), mouse, plasma, iv, mouse plasma, 4.00 h, read-out: Conc. in plasma, Mean): 0.565 ng/mL
concentration at 4 h ([2]; male, ICR (CD-1), mouse, plasma, iv, mouse plasma, 4.00 h, read-out: Conc. in plasma, individual animal): 0.597 ng/mL
SMILES: CC(=O)Nc1ccc(C2=Nc3ccc(Cl)cc3OC2)cc1 [CA77, reference compound]
CMA activity (fluorescent puncta per cell, relative to untreated cells = 1) ([1]; Time 5): 2.667
CMA activity (fluorescent puncta per cell, relative to untreated cells = 1) ([1]; Time 10): 3.331
CMA activity (fluorescent puncta per cell, relative to untreated cells = 1) ([1]; Time 20): 5.005
CMA activity (fluorescent puncta per cell, relative to untreated cells = 1) ([1]; Time 30): 5.471
